The text below walks through data of publication PMC6736568, “Discovery of Novel Anti-cryptosporidial Activities From Natural Products by in vitro High-Throughput Phenotypic Screening” (Frontiers in Microbiology, 2019).

Counter-ions that a name gives are not always drawn. Like-named read-outs stand apart in the source and are kept apart here.

One data set has as its system Cryptosporidium parvum. As to the kind of experiment: qRT-PCR assay of the growth of C. parvum in vitro in HCT-8 host cells (primary and secondary screening, EC50). It counts as cell-based. To be noted: Cryptosporidium parvum, HCT-8; for inhibition at 10 µM: primary screening at 10 uM, read-out: Inhibition (%).
Where [1] appears, read: primary screening at 10 uM, treated vs control.

What is called inhibition is the relative decrease from the control value, in per cent. With `O=c1c2cc(O)c(O)cc2oc2cc(O)c([C@@H]3O[C@H](CO)[C@@H](O)[C@H](O)[C@H]3O)c(O)c12` [MANGIFERIN], in the data set on Cryptosporidium parvum, the inhibition at 10 µM is -3.49%. In the data set with HCT-8 host cells (Hs18S) (human, 41 h, 10 μM), the “Hs18S ΔCT” value worked out at 0.18. In addition, the cytotoxicity at 41 h, 10 µM in “in vitro” (human) worked out at 11.5%.

On to `C[N+](C)(C)CC(=O)O` [BETAINE HYDROCHLORIDE], for which the inhibition at 10 µM with Cryptosporidium parvum is 19.9%. In the data set on HCT-8 host cells (Hs18S) (human, 41 h, 10 μM), the “Hs18S ΔCT” value is -0.38. In “in vitro” (human), the cytotoxicity at 41 h, 10 µM was -30%.

In the case of `C=C1C(=O)O[C@@H]2C[C@@]3(C)CCC[C@H](C)C3=C[C@H]12` [HELENINE], the inhibition at 10 µM in the data set on Cryptosporidium parvum is -20%. Further, in the data set with HCT-8 host cells (Hs18S) (human, 41 h, 10 μM), the “Hs18S ΔCT” value is 0.10. Besides, the cytotoxicity at 41 h, 10 µM in “in vitro” (human) was 6.4%.

With `C=C[C@@]1(C)CC(=O)[C@]2(O)[C@@]3(C)[C@@H](O)CCC(C)(C)[C@@H]3[C@H](O)[C@H](OC(C)=O)[C@@]2(C)O1` [COLFORSIN], the inhibition at 10 µM in the data set with Cryptosporidium parvum stood at 24.8%. Besides, in the data set with HCT-8 host cells (Hs18S) (human, 41 h, 10 μM), the “Hs18S ΔCT” value stood at 0.14. In “in vitro” (human), the cytotoxicity at 41 h, 10 µM worked out at 9.4%.

For the molecule `CC(=O)Oc1cc(OC(C)=O)c2c(c1)O[C@H](c1ccc(OC(C)=O)c(OC(C)=O)c1)[C@@H](OC(C)=O)C2` [CATECHIN PENTAACETATE], in the data set with Cryptosporidium parvum, the inhibition at 10 µM amounted to 10.7%. Besides, the “Hs18S ΔCT” value with HCT-8 host cells (Hs18S) (setting [1]) was -0.26. Besides, the cytotoxicity at 10 µM in the data set “in vitro” is -19.6%.

As for `CC(C)(c1ccc(O)cc1)c1ccc(O)cc1` [BISPHENOL A], the inhibition at 10 µM in the data set with Cryptosporidium parvum is -35.2%. Moreover, in the data set with HCT-8 host cells (Hs18S) (human, 41 h, 10 μM), the “Hs18S ΔCT” value was -0.20. In “in vitro” (human), the cytotoxicity at 41 h, 10 µM is -15%.

In the case of `COC(=O)c1c(C)cc(O)cc1O` [METHYL ORSELLINATE], the inhibition at 10 µM in the data set with Cryptosporidium parvum is -34.8%. The “Hs18S ΔCT” value in the data set on HCT-8 host cells (Hs18S) (human, 41 h, 10 μM) is recorded as 0.31. Further, in “in vitro” (human), the cytotoxicity at 41 h, 10 µM was 19.6%.

Take `O=c1c(O)c(-c2ccccc2)oc2ccccc12` [3-HYDROXYFLAVONE]: in the data set with Cryptosporidium parvum, the inhibition at 10 µM was 92.4%. For the same molecule, in the data set with Cryptosporidium parvum (secondary screening at 3.3 uM, read-out: % Inhibition (3.3 uM)), the inhibition at 3.3 µM was -28%. Besides, the “Hs18S ΔCT” value in the data set on HCT-8 host cells (Hs18S) (human, 41 h, 10 μM) is listed as -0.04. Besides, the cytotoxicity at 41 h, 10 µM in the data set “in vitro” (human) is -2.7%.

`COC1(C)CCC2OC2(C)CCC2C1CC2(C)C` (stereo not shown) [2-METHOXY-5 (6)EPOXY-TETRAHYDROCARYOPHYLLENE]: the inhibition at 10 µM in the data set on Cryptosporidium parvum was -24.7%. For the same molecule, the “Hs18S ΔCT” value with HCT-8 host cells (Hs18S) (human, 41 h, 10 μM) was -0.15. For the same molecule, the cytotoxicity at 41 h, 10 µM in the data set “in vitro” (human) was -11.1%.

Regarding `C/C1=C\CCC(=O)C2CC(C)(C)C2CC1` (stereo not shown) [15-NORCARYOPHYLLEN-3-ONE], the inhibition at 10 µM in the data set with Cryptosporidium parvum is -15.7%. Also, the “Hs18S ΔCT” value with HCT-8 host cells (Hs18S) (human, 41 h, 10 μM) is reported as -0.05. Further, the cytotoxicity at 41 h, 10 µM in “in vitro” (human) is -3.6%.

On to `C[C@H](CCC(=O)O)[C@H]1CC[C@H]2[C@@H]3CC[C@@H]4CCCC[C@]4(C)[C@H]3CC[C@]12C` [URSOCHOLANIC ACID], for which, in the data set on Cryptosporidium parvum, the inhibition at 10 µM was determined as 59.3%. Moreover, the “Hs18S ΔCT” value in the data set with HCT-8 host cells (Hs18S) (setting [1]) is recorded as -0.10. In addition, the cytotoxicity at 41 h, 10 µM in “in vitro” is -6.9%.

In the case of `CC[C@@]1(O)C[C@H](O[C@H]2C[C@H](N(C)C)[C@H](O)[C@H](C)O2)c2c(cc3c(c2O)C(=O)c2c(O)ccc(O)c2C3=O)[C@H]1C(=O)OC` [PYRROMYCIN], the inhibition at 10 µM in the data set with Cryptosporidium parvum was -46.1%. Further, the “Hs18S ΔCT” value with HCT-8 host cells (Hs18S) (setting [1]) was 0.35. In the data set “in vitro”, the cytotoxicity at 10 µM was found to be 21.5%.

On to `NCCc1ccc(O)cc1` [TYRAMINE], for which, in the data set with Cryptosporidium parvum, the inhibition at 10 µM was -27.4%. For the same molecule, the “Hs18S ΔCT” value in the data set on HCT-8 host cells (Hs18S) (human, 41 h, 10 μM) is -0.27. Besides, the cytotoxicity at 10 µM in “in vitro” is -20.9%.

As for `O=c1c2ccccc2oc2ccccc12` [XANTHONE], the inhibition at 10 µM with Cryptosporidium parvum was found to be 0.45%. Further, the “Hs18S ΔCT” value in the data set with HCT-8 host cells (Hs18S) (human, 41 h, 10 μM) is 0.13. The cytotoxicity at 41 h, 10 µM in the data set “in vitro” (human) was 8.9%.

Consider `COC1=CC(=O)C(C(=O)c2ccccc2)=CC1=O` [2-BENZOYL-5-METHOXYBENZOQUINONE], for which, in the data set with Cryptosporidium parvum, the inhibition at 10 µM was 16.2%. Besides, the “Hs18S ΔCT” value with HCT-8 host cells (Hs18S) (human, 41 h, 10 μM) is -0.59. For the same molecule, in the data set “in vitro” (human), the cytotoxicity at 41 h, 10 µM was -50.7%.

Take `COc1ccc(-c2c(O)c3c(OC)c4c(cc3oc2=O)OC(C)(C)C=C4)cc1` [ROBUSTIC ACID]: in the data set on Cryptosporidium parvum, the inhibition at 10 µM worked out at 9.13%. For the same molecule, the “Hs18S ΔCT” value with HCT-8 host cells (Hs18S) (human, 41 h, 10 μM) was determined as 0.28. The cytotoxicity at 41 h, 10 µM in “in vitro” (human) stood at 17.8%.

On to `Nc1ncnc2c1ncn2[C@@H]1O[C@H](CO)[C@@H](O)[C@H]1O` [ADENOSINE], for which the inhibition at 10 µM with Cryptosporidium parvum is -13.4%. Also, in the data set on HCT-8 host cells (Hs18S) (human, 41 h, 10 μM), the “Hs18S ΔCT” value is given as 0.02. Moreover, the cytotoxicity at 41 h, 10 µM in “in vitro” (human) is 1.5%.

Turning to `C#CCCCCCCCCCCCC(O)CC(O)COC(C)=O` (stereo not shown) [AVOCADYNE ACETATE], in the data set with Cryptosporidium parvum, the inhibition at 10 µM amounted to 15.8%. Moreover, in the data set with HCT-8 host cells (Hs18S) (human, 41 h, 10 μM), the “Hs18S ΔCT” value came to 0.19. Further, in “in vitro” (human), the cytotoxicity at 41 h, 10 µM turned out to be 12.2%.

As for `Cc1cc(=O)oc2cc(O)c(O)cc12` [4-METHYLESCULETIN], the inhibition at 10 µM with Cryptosporidium parvum was -3.64%. Also, the “Hs18S ΔCT” value with HCT-8 host cells (Hs18S) (setting [1]) worked out at 0.01. Further, the cytotoxicity at 10 µM in the data set “in vitro” was 0.7%.

For `C=C[C@@H](C1=CC(=O)C(OC)=C(OC)C1=O)c1ccccc1` [3,4-DIMETHOXYDALBERGIONE], the inhibition at 10 µM in the data set on Cryptosporidium parvum is 11.6%. Also, the “Hs18S ΔCT” value in the data set with HCT-8 host cells (Hs18S) (human, 41 h, 10 μM) was 0.06. Also, the cytotoxicity at 41 h, 10 µM in “in vitro” (human) is 3.8%.
